Measured values reported in patent US20260068882A1, “ARTHROPOD CONTROLLING COMPOSITION” (Firmenich SA, priority 2019, published 2026).

Legend:
Aedes aegypti = test: In vitro Warm Body assay, mosquitoes landing on treated warm body; assay type: in vivo; settings: for % of mosquitoes' repellency: normalised to landing with 100% ethanol
Outline: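 Adapted Warm Body assay with host-seeking, non-blood-fed, sugar-fed A. aegypti Rockefeller females aged 5–10 days (10–12 days in one set); cages held 30 (or 25) females at 150 lux. Landings were counted automatically. Doses in ethanol were 0.0016%, 0.04% and 1% in triplicate, or a single replicate across 0.0016–1%.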

Ixodes ricinus = test: In vitro Warm Plate Assay for ticks; assay type: in vivo; settings: for percentage of ticks affected overtime: 20% (w/w) in ethanol
Description: Repellent efficacy of the different compounds was assessed against the sheep tick, Ixodes ricinus. I. ricinus is one of the recommended model organisms mentioned by the Guidance on the European Biological Products Regulation [Vol II, Efficacy-Assessment & Evaluation (Parts B+C), v. 3.0, April 2018]. Observations of repellent efficacy were made on last stage nymphs.
The repellent efficacy was assessed using the protocol of the in-vitro Warm Plate Assay as defined in Kröber T, Bourquin M, Guerin P M. A standardized in vivo and in vitro test method for evaluating tick repellents. Pesticide Biochemistry and Physiology. 2013; 107 (2): 160-168.].
The mean±SD number of ticks Ixodes ricinus walking down (affected), falling (affected) or walking-up (non affected) from the warm plate treated with ethanol, N,N-diethyl-3-methylbenzamide, (2,5-dimethyl-2,3-dihydro-1H-inden-2yl)methanol (Ingredient 2) or (2,4,6-trimethyl-2,3-dihydro-1H-inden-2-yl)methanol (Ingredient 1) diluted in ethanol at 0.4 mg/ml and 10 mg/mL was assessed on n groups of 12 ticks (n=2-5).
In this in-vitro assay, the percentage of ticks Ixodes ricinus affected by the stimulus loaded on the warm plate was measured in order to assess the repellency effect. Twelve ticks were assessed per concentrations that goes from 0.0016% up to 1% in ethanol.
Using the same in-vitro setup, the effect on ticks behavior (n≥12) of different stimuli diluted in ethanol at 20% (w/w) was assessed overtime.

Structure (SMILES): CCN(CC)C(=O)c1cccc(C)c1 [DEET, N,N-diethyl-3-methylbenzamide, reference compound]
- % of mosquitoes' repellency (Aedes aegypti; 0.00032% concentration): 17%
- % of mosquitoes' repellency (Aedes aegypti; 0.00071% concentration): 10%
- % of mosquitoes' repellency (Aedes aegypti; 0.0016% concentration): 5%
- mean ± SD numbers of mosquitoes landed on the Warm Body (Aedes aegypti; 0.0016% dilution (Table 4)): 53.3 ± 12.5
- % of mosquitoes' repellency (Aedes aegypti; 0.0036% concentration): 19%
- % of mosquitoes' repellency (Aedes aegypti; 0.0053% concentration): 46%
- % of mosquitoes' repellency (Aedes aegypti; 0.0080% concentration): 61%
- % of mosquitoes' repellency (Aedes aegypti; 0.018% concentration): 79%
- % of mosquitoes' repellency (Aedes aegypti; 0.040% concentration): 89%
- mean ± SD numbers of mosquitoes landed on the Warm Body (Aedes aegypti; 0.04% dilution (Table 4)): 5.7 ± 1.0
- % of mosquitoes' repellency (Aedes aegypti; 0.089% concentration): 97%
- % of mosquitoes' repellency (Aedes aegypti; 0.20% concentration): 98%
- % of mosquitoes' repellency (Aedes aegypti; 0.45% concentration): 95%
- % of mosquitoes' repellency (Aedes aegypti; 1% concentration): 97%
- mean ± SD numbers of mosquitoes landed on the Warm Body (Aedes aegypti; 1% dilution (Table 4)): 0.7 ± 0.3
- pest or weed control at 0.04 % (Aedes aegypti; Aedes aegypti, 0.04% in ethanol (FIG. 8), read-out: decrease of landings): 92%
- MEAN % affected (ticks) (Ixodes ricinus; 0.4 mg/mL in ethanol (Table 5)): 50%
- MEAN % affected (ticks) (Ixodes ricinus; 10 mg/mL in ethanol (Table 5)): 96%

Structure (SMILES): CCCCN(CCC(=O)OCC)C(C)=O [IR3535, 3-[N-n-butyl-N-acetyl]aminopropionic acid ethylester, reference compound]
- % of mosquitoes' repellency (Aedes aegypti; 0.00032% concentration): 8%
- % of mosquitoes' repellency (Aedes aegypti; 0.0016% concentration): 0%
- mean ± SD numbers of mosquitoes landed on the Warm Body (Aedes aegypti; 0.0016% dilution (Table 4)): 70.0 ± 14.3
- number of mosquitoes landed on the Warm Body (Aedes aegypti; 0.0016% in ethanol (Table 7, one replicate)): 70
- % of mosquitoes' repellency (Aedes aegypti; 0.0080% concentration): 0%
- number of mosquitoes landed on the Warm Body (Aedes aegypti; 0.008% in ethanol (Table 7, one replicate)): 63
- number of mosquitoes landed on the Warm Body (Aedes aegypti; 0.0119% in ethanol (Table 7, one replicate)): 22
- % of mosquitoes' repellency (Aedes aegypti; 0.040% concentration): 69%
- mean ± SD numbers of mosquitoes landed on the Warm Body (Aedes aegypti; 0.04% dilution (Table 4)): 20.7 ± 2.1
- number of mosquitoes landed on the Warm Body (Aedes aegypti; 0.04% in ethanol (Table 7, one replicate)): 21
- number of mosquitoes landed on the Warm Body (Aedes aegypti; 0.0598% in ethanol (Table 7, one replicate)): 6
- % of mosquitoes' repellency (Aedes aegypti; 0.20% concentration): 78%
- number of mosquitoes landed on the Warm Body (Aedes aegypti; 0.2% in ethanol (Table 7, one replicate)): 9
- number of mosquitoes landed on the Warm Body (Aedes aegypti; 0.447% in ethanol (Table 7, one replicate)): 0
- % of mosquitoes' repellency (Aedes aegypti; 1% concentration): 89%
- mean ± SD numbers of mosquitoes landed on the Warm Body (Aedes aegypti; 1% dilution (Table 4)): 7.7 ± 1.6
- number of mosquitoes landed on the Warm Body (Aedes aegypti; 1% in ethanol (Table 7, one replicate)): 8
- repulsion (in words) (Aedes aegypti; concentrations lower than 0.04%): only low repulsion
- percentage of ticks affected on the Warm Plate (Ixodes ricinus; 0.0016% in ethanol (Table 12)): 0%
- percentage of ticks affected on the Warm Plate (Ixodes ricinus; 0.0053% in ethanol (Table 12)): 0%
- percentage of ticks affected on the Warm Plate (Ixodes ricinus; 0.008% in ethanol (Table 12)): 8%
- percentage of ticks affected on the Warm Plate (Ixodes ricinus; 0.0119% in ethanol (Table 12)): 0%
- percentage of ticks affected on the Warm Plate (Ixodes ricinus; 0.0178% in ethanol (Table 12)): 0%
- percentage of ticks affected on the Warm Plate (Ixodes ricinus; 0.0267% in ethanol (Table 12)): 0%
- percentage of ticks affected on the Warm Plate (Ixodes ricinus; 0.04% in ethanol (Table 12)): 33%
- percentage of ticks affected on the Warm Plate (Ixodes ricinus; 0.0598% in ethanol (Table 12)): 12%
- percentage of ticks affected on the Warm Plate (Ixodes ricinus; 0.089% in ethanol (Table 12)): 46%
- percentage of ticks affected on the Warm Plate (Ixodes ricinus; 0.2% in ethanol (Table 12)): 57%
- percentage of ticks affected on the Warm Plate (Ixodes ricinus; 0.447% in ethanol (Table 12)): 53%
- percentage of ticks affected on the Warm Plate (Ixodes ricinus; 1% in ethanol (Table 12)): 56%
- percentage of ticks affected overtime (Ixodes ricinus; 0.25 h post-application): 83%
- percentage of ticks affected overtime (Ixodes ricinus; 0.5 h post-application): 40%
- percentage of ticks affected overtime (Ixodes ricinus; 1 h post-application): 83%
- percentage of ticks affected overtime (Ixodes ricinus; 2 h post-application): 58%
- percentage of ticks affected overtime (Ixodes ricinus; 4 h post-application): 58%
- percentage of ticks affected overtime (Ixodes ricinus; 6 h post-application): 0%
- ticks affected (Ixodes ricinus; dose of 0.89%): 46%
